biological target: T1, Cholecystokinin receptor type A (Homo sapiens, UniProt P32238); assay type: cell membranes, Membrane; details: 1321-n1; also: in other assays of this panel Not Active means under 50% inhibition at 10 µM
T1 sequence (P32238 whole entry): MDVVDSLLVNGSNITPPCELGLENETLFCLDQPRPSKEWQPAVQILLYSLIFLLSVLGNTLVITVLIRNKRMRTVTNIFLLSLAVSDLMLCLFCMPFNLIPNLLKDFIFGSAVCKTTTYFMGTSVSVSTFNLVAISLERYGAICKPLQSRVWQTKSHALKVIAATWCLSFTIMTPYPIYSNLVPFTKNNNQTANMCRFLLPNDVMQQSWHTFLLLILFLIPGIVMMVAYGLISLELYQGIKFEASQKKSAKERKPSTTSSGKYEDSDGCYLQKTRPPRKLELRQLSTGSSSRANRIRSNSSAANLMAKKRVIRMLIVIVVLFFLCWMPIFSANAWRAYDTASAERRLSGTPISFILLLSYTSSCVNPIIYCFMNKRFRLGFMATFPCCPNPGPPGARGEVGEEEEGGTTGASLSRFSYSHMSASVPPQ

Compound | IC50 | Ki
CC(=O)[C@H]1[C@H](C#N)C[C@H]2[C@@H]3CC=C4C[C@@H](O)CC[C@]4(C)[C@H]3CC[C@@]21C [PREGNENOLONE CARBONITRILE] | Not Active | –
CCCN(CCC)S(=O)(=O)c1ccc(C(=O)O)cc1 [PROBENECID] | Not Active | –
CCCOc1ccc(C(=O)OCCN(CC)CC)cc1N [PROPARACAINE] | Not Active | –
Oc1cccc(O)c1O [PYROGALLOL] | Not Active | –
AURANOFIN | Not Active | Not Active
GADOPENTETATE DIMEGLUMINE | Not Active | Not Active
GENTAMICIN | Not Active | Not Active
GRAMICIDIN | Not Active | Not Active
NYSTATIN | Not Active | Not Active

biological target: Mitogen-activated protein kinase 3 (Homo sapiens, UniProt P27361); experiment: DRUGMATRIX: Protein Serine/Threonine Kinase, ERK1 enzyme inhibition (substrate: Myelin Basic Protein); set-up: species or system Escherichia coli; details: Not Active = under 50% inhibition at 10 µM
Sequence (P27361 whole entry): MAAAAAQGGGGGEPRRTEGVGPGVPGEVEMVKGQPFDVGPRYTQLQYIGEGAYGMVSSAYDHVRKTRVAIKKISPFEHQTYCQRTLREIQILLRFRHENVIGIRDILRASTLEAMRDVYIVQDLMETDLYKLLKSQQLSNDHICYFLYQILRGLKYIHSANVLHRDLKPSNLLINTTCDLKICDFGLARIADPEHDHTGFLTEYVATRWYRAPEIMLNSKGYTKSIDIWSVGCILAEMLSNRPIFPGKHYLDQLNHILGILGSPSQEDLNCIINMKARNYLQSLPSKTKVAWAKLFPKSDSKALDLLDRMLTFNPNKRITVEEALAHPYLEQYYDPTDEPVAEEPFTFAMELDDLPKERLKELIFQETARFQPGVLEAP

Compound | IC50 | Ki
CC(=O)[C@H]1[C@H](C#N)C[C@H]2[C@@H]3CC=C4C[C@@H](O)CC[C@]4(C)[C@H]3CC[C@@]21C [PREGNENOLONE CARBONITRILE] | Not Active | –
CCCN(CCC)S(=O)(=O)c1ccc(C(=O)O)cc1 [PROBENECID] | Not Active | –
CCCOc1ccc(C(=O)OCCN(CC)CC)cc1N [PROPARACAINE] | Not Active | –
Oc1cccc(O)c1O [PYROGALLOL] | Not Active | –
AURANOFIN | Not Active | Not Active
GADOPENTETATE DIMEGLUMINE | Not Active | Not Active
GENTAMICIN | Not Active | Not Active
GRAMICIDIN | Not Active | Not Active
NYSTATIN | Not Active | Not Active

biological target: Melanocortin receptor 3 (Homo sapiens, UniProt P41968); assay type: cell membranes, HEK293, Membrane; details: hek293; also: in other assays of this panel Not Active means under 50% inhibition at 10 µM
Sequence (P41968 whole entry): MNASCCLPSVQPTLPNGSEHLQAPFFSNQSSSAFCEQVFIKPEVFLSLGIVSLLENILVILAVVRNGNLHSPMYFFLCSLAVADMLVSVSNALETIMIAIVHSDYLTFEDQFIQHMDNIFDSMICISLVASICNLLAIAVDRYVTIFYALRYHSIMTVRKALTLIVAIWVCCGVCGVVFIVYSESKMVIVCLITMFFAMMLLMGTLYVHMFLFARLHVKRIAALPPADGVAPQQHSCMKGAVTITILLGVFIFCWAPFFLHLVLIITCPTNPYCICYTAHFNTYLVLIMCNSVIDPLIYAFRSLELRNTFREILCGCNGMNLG

Compound | IC50 | Ki
CC(=O)[C@H]1[C@H](C#N)C[C@H]2[C@@H]3CC=C4C[C@@H](O)CC[C@]4(C)[C@H]3CC[C@@]21C [PREGNENOLONE CARBONITRILE] | Not Active | –
CCCN(CCC)S(=O)(=O)c1ccc(C(=O)O)cc1 [PROBENECID] | Not Active | –
CCCOc1ccc(C(=O)OCCN(CC)CC)cc1N [PROPARACAINE] | Not Active | –
Oc1cccc(O)c1O [PYROGALLOL] | Not Active | –
AURANOFIN | Not Active | Not Active
GADOPENTETATE DIMEGLUMINE | Not Active | Not Active
GENTAMICIN | Not Active | Not Active
GRAMICIDIN | Not Active | Not Active
NYSTATIN | Not Active | Not Active

tested on: not listed separately; experiment: DRUGMATRIX: Phosphodiesterase PDE4 enzyme inhibition (substrate: [3H]cAMP + cAMP); details: u-937; Not Active = under 50% inhibition at 10 µM

Compound | IC50 | Ki
CC(=O)[C@H]1[C@H](C#N)C[C@H]2[C@@H]3CC=C4C[C@@H](O)CC[C@]4(C)[C@H]3CC[C@@]21C [PREGNENOLONE CARBONITRILE] | Not Active | Not Active
CCCN(CCC)S(=O)(=O)c1ccc(C(=O)O)cc1 [PROBENECID] | Not Active | Not Active
CCCOc1ccc(C(=O)OCCN(CC)CC)cc1N [PROPARACAINE] | Not Active | Not Active
Oc1cccc(O)c1O [PYROGALLOL] | Not Active | Not Active
AURANOFIN | Not Active | Not Active
GADOPENTETATE DIMEGLUMINE | Not Active | Not Active
GENTAMICIN | Not Active | Not Active
GRAMICIDIN | Not Active | Not Active
NYSTATIN | Not Active | Not Active

biological target: Cytochrome P450 2C9 (Homo sapiens, UniProt P11712); details: bti-tn-5b1-4; also: in other assays of this panel Not Active means under 50% inhibition at 10 µM
Sequence (P11712 whole entry): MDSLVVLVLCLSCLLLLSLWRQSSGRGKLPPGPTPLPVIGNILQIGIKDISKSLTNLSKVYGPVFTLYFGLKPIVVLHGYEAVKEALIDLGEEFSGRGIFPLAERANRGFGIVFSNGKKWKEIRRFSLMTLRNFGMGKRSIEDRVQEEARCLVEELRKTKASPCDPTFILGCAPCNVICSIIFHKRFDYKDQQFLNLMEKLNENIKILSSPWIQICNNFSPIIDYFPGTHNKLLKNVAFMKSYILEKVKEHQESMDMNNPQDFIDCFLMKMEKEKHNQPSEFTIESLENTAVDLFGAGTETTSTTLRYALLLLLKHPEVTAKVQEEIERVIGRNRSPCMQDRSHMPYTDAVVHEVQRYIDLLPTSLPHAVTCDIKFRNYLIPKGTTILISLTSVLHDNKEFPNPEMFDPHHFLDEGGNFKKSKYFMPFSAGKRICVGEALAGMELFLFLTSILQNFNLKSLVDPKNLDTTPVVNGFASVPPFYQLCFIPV

Compound | IC50 | Ki
CC(=O)[C@H]1[C@H](C#N)C[C@H]2[C@@H]3CC=C4C[C@@H](O)CC[C@]4(C)[C@H]3CC[C@@]21C [PREGNENOLONE CARBONITRILE] | Not Active | Not Active
CCCN(CCC)S(=O)(=O)c1ccc(C(=O)O)cc1 [PROBENECID] | Not Active | Not Active
CCCOc1ccc(C(=O)OCCN(CC)CC)cc1N [PROPARACAINE] | Not Active | Not Active
Oc1cccc(O)c1O [PYROGALLOL] | Not Active | Not Active
AURANOFIN | Not Active | Not Active
GADOPENTETATE DIMEGLUMINE | Not Active | Not Active
GENTAMICIN | Not Active | Not Active
GRAMICIDIN | Not Active | Not Active
NYSTATIN | Not Active | Not Active

biological target: T2, Amine oxidase [flavin-containing] A (Homo sapiens, UniProt P21397); experiment: DRUGMATRIX: Monoamine Oxidase MAO-A enzyme inhibition (substrate: Kynuramine); set-up: species or system BTI-TN-5B1-4; details: Not Active = under 50% inhibition at 10 µM; read-out: IC50
T2 sequence (P21397 whole entry): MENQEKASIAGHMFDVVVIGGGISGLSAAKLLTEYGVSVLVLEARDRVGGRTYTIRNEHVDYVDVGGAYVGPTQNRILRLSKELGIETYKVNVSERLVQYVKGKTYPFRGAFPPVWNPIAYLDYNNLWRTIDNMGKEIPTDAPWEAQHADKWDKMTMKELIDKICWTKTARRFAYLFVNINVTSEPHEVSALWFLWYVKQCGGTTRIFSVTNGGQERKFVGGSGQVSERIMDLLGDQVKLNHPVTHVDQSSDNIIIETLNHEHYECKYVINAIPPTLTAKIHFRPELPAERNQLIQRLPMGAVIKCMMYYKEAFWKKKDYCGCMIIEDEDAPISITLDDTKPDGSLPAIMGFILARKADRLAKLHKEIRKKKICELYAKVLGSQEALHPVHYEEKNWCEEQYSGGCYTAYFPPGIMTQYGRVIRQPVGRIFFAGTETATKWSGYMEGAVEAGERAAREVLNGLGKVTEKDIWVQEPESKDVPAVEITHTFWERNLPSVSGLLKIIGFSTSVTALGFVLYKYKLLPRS

Compound | IC50 [µM]
CCCOc1ccc(C(=O)OCCN(CC)CC)cc1N [PROPARACAINE] | 1.78

same assay, conditions: bti-tn-5b1-4; Not Active = under 50% inhibition at 10 µM

Compound | IC50 | Ki
CC(=O)[C@H]1[C@H](C#N)C[C@H]2[C@@H]3CC=C4C[C@@H](O)CC[C@]4(C)[C@H]3CC[C@@]21C [PREGNENOLONE CARBONITRILE] | Not Active | –
CCCN(CCC)S(=O)(=O)c1ccc(C(=O)O)cc1 [PROBENECID] | Not Active | –
Oc1cccc(O)c1O [PYROGALLOL] | Not Active | –
AURANOFIN | Not Active | Not Active
GADOPENTETATE DIMEGLUMINE | Not Active | Not Active
GENTAMICIN | Not Active | Not Active
GRAMICIDIN | Not Active | Not Active
NYSTATIN | Not Active | Not Active

biological target: T3, Caspase-1 (Homo sapiens, UniProt P29466); set-up: species or system Escherichia coli; details: not given;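 also: Caspase-1 enzyme inhibition assay with a peptide substrate; in other assays of this panel Not Active means under 50% inhibition at 10 µM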
T3 sequence (P29466 whole entry): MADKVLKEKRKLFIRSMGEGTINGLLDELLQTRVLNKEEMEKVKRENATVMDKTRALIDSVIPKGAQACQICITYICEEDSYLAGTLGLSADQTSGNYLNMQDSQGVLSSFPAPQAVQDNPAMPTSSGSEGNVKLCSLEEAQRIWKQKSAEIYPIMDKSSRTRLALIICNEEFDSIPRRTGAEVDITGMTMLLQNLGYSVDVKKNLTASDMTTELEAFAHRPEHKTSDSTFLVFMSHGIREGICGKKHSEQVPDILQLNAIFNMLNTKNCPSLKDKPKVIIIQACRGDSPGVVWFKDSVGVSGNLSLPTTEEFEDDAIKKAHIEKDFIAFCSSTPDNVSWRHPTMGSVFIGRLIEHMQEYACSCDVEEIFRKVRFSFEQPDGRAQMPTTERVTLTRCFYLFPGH

Compound | IC50 | Ki
CC(=O)[C@H]1[C@H](C#N)C[C@H]2[C@@H]3CC=C4C[C@@H](O)CC[C@]4(C)[C@H]3CC[C@@]21C [PREGNENOLONE CARBONITRILE] | Not Active | –
CCCN(CCC)S(=O)(=O)c1ccc(C(=O)O)cc1 [PROBENECID] | Not Active | –
CCCOc1ccc(C(=O)OCCN(CC)CC)cc1N [PROPARACAINE] | Not Active | –
Oc1cccc(O)c1O [PYROGALLOL] | Not Active | –
AURANOFIN | Not Active | Not Active
GADOPENTETATE DIMEGLUMINE | Not Active | Not Active
GENTAMICIN | Not Active | Not Active
GRAMICIDIN | Not Active | Not Active
NYSTATIN | Not Active | Not Active

tested on: not listed separately; experiment: DRUGMATRIX: ATPase, Na+/K+ enzyme inhibition (substrate: ATP); assay type: tissue-based, Sus scrofa, Heart; details: Not Active = under 50% inhibition at 10 µM

Compound | IC50 | Ki
CC(=O)[C@H]1[C@H](C#N)C[C@H]2[C@@H]3CC=C4C[C@@H](O)CC[C@]4(C)[C@H]3CC[C@@]21C [PREGNENOLONE CARBONITRILE] | Not Active | Not Active
CCCN(CCC)S(=O)(=O)c1ccc(C(=O)O)cc1 [PROBENECID] | Not Active | Not Active
CCCOc1ccc(C(=O)OCCN(CC)CC)cc1N [PROPARACAINE] | Not Active | Not Active
Oc1cccc(O)c1O [PYROGALLOL] | Not Active | Not Active
AURANOFIN | Not Active | Not Active
GADOPENTETATE DIMEGLUMINE | Not Active | Not Active
GENTAMICIN | Not Active | Not Active
NYSTATIN | Not Active | Not Active

same assay, conditions: Not Active = under 50% inhibition at 10 µM; read-out: IC50

Compound | IC50 [µM]
GRAMICIDIN | 5.14
